Literature values as cited in patent US20050220774A1, “Methods of inducing differentiation in ex vivo expanded stem cells” (priority 2002, published 2005).

Columns and labels:
stem cells = settings: PCT/IL03/00064

Row | Compound | clonability of long-term cultures (CD34+ cells; long-term cultures (3-5 weeks)) | cell clonability and percentage of CD34+ cells (CD34+ cells; with early-acting or early and late acting cytokines) | differentiation of stem cells ex vivo (stem cells)
1 | NCCNCCNCCNCCN [TEPA, tetraethylenepentamine] | more efficient clonability | significant increases | –
2 | NC(=O)c1cccnc1 [nicotinamide] | – | – | represses the process of differentiation of stem cells
